Measured values as given in patent US20190375708A1 (VenatoRx Pharmaceuticals, Inc., priority 2018, published 2019).

Key:
[1] = test system: HBV replication in HepAD38 cells; assay: Anti-HBV replication assay in HepAD38 cells (QPCR of extracellular HBV DNA); format: cell-based, HBV (genotype D, serotype ayw); conditions: Hepatitis B virus, 168 h, 7 days incubation, extracellular HBV DNA by QPCR, read-out: Anti-HBV EC50
Method in brief: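 HepAD38 cells (HepG2 carrying a tet-repressible HBV genotype D genome) were seeded in tetracycline-free medium and treated next day with compound […] for 7 days. Supernatant HBV DNA was measured by QPCR against a standard curve; EC50 came from 4-parameter fits of inhibition versus DMSO control.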

[2] = In vitro cytotoxicity assay (MTT cell viability) in HepG2 cells; format: cell-based, human; conditions: human
Method in brief: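 Read-out: MTT formazan absorbance at 492 nm, expressed as % of vehicle signal; CC50 by 4-parameter non-linear regression. Parental HepG2, 20,000 cells/well, treated 7 days with compound from 30 μM down to 1.0 nM.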

SMILES | EC50 [1] [nM] | CC50 at 7 days [2] [nM]
Cc1cc(NC(=O)c2c(Cl)c(C(=O)C(=O)NCC(C)(C)CO)n3c2CCCC3)ccc1F [Example 498, 2-chloro-N-(4-fluoro-3-methylphenyl)-3-(2-((3-hydroxy-2,2-dimethylpropyl)amino)-2-oxoacetyl)-5,6,7,8-tetrahydroindolizine-1-carboxamide] | 50 to 499 | > 30000
Cc1cnc(C(C)(C)NC(=O)C(=O)c2c(C)c(C(=O)Nc3ccc(F)c(C)c3)c(C)n2C)s1 [Example 84, N-(4-fluoro-3-methylphenyl)-1,2,4-trimethyl-5-(2-((2-(5-methylthiazol-2-yl)propan-2-yl)amino)-2-oxoacetyl)-1H-pyrrole-3-carboxamide] | < 50 | > 30000
Cc1cc(NC(=O)C(=O)c2c(C)c(C(=O)Nc3ccc(F)c(C)c3)c(C)n2C)ccc1F [Example 216, N-(4-fluoro-3-methylphenyl)-5-(2-((4-fluoro-3-methylphenyl)amino)-2-oxoacetyl)-1,2,4-trimethyl-1H-pyrrole-3-carboxamide] | < 50 | 5000 to 30000
Cc1cc(NC(=O)c2c(C)c(C(=O)C(=O)NC3CCc4nc(N)sc4C3)n(C)c2C)cnc1F (stereo in doubt) [Example 138, (S)-5-(2-((2-amino-4,5,6,7-tetrahydrobenzo[d]thiazol-6-yl)amino)-2-oxoacetyl)-N-(6-fluoro-5-methylpyridin-3-yl)-1,2,4-trimethyl-1H-pyrrole-3-carboxamide] | < 50 | 500 to 4990
Cc1cc(NC(=O)c2cc(C(=O)C(=O)NC(C)(C)C)n3c2COCC3)ccc1F [Example 583, 6-(2-(tert-butylamino)-2-oxoacetyl)-N-(4-fluoro-3-methylphenyl)-3,4-dihydro-1H-pyrrolo[2,1-c][1,4]oxazine-8-carboxamide] | < 50 | > 30000
Cc1cc(NC(=O)c2cc(C(=O)C(=O)NC3(C(F)(F)F)CC3)n3c2CCCC3)ccc1F [Example 402, N-(4-fluoro-3-methylphenyl)-3-(2-oxo-2-((1-(trifluoromethyl)cyclopropyl)amino)acetyl)-5,6,7,8-tetrahydroindolizine-1-carboxamide] | 50 to 499 | > 30000
Cc1nnc(C2(NC(=O)C(=O)c3c(C)c(C(=O)Nc4ccc(F)c(C)c4)c(C)n3CCF)CC2)o1 [Example 201, N-(4-fluoro-3-methylphenyl)-1-(2-fluoroethyl)-2,4-dimethyl-5-(2-((1-(5-methyl-1,3,4-oxadiazol-2-yl)cyclopropyl)amino)-2-oxoacetyl)-1H-pyrrole-3-carboxamide] | 50 to 499 | > 30000
Cc1cc(NC(=O)c2c(C)c(C(=O)C(=O)N3CCC(O)C(C)(C)C3)n(C)c2C)ccc1F (stereo not shown) [Example 53, N-(4-fluoro-3-methylphenyl)-5-(2-(4-hydroxy-3,3-dimethylpiperidin-1-yl)-2-oxoacetyl)-1,2,4-trimethyl-1H-pyrrole-3-carboxamide] | 50 to 499 | > 30000
Cc1cc(NC(=O)c2cc(C(=O)C(=O)NC(C)(C)C)n3c2CN(C(=O)OC(C)(C)C)CC3)ccc1F [Example 587, tert-butyl 6-(2-(tert-butylamino)-2-oxoacetyl)-8-((4-fluoro-3-methylphenyl)carbamoyl)-3,4-dihydropyrrolo[1,2-a]pyrazine-2(1H)-carboxylate] | 50 to 499 | > 30000
Cc1cc(NC(=O)c2c(C)c(C(=O)C(=O)N[C@H]3CNC(=O)C3)n(C)c2C)ccc1F [Example 611, (R)-N-(4-fluoro-3-methylphenyl)-1,2,4-trimethyl-5-(2-oxo-2-((5-oxopyrrolidin-3-yl)amino)acetyl)-1H-pyrrole-3-carboxamide] | < 50 | > 30000
Cc1cc(NC(=O)c2c(C)c(C(=O)C(=O)N[C@@H](CO)C(C)(C)C)n(C)c2C)ccc1F [Example 78, (R)—N-(4-fluoro-3-methylphenyl)-5-(2-((1-hydroxy-3,3-dimethylbutan-2-yl)amino)-2-oxoacetyl)-1,2,4-trimethyl-1H-pyrrole-3-carboxamide] | < 50 | > 30000
Cc1cc(NC(=O)c2c(C)c(C(=O)C(=O)NC3CC[C@@H](O)[C@@H](O)CC3)n(C)c2C)ccc1F (stereo partly drawn) [Example 713, 5-(2-(((4R,5S)-4,5-dihydroxycycloheptyl)amino)-2-oxoacetyl)-N-(4-fluoro-3-methylphenyl)-1,2,4-trimethyl-1H-pyrrole-3-carboxamide] | < 50 | > 30000
Cc1cc(NC(=O)c2cc(C(=O)C(=O)N3CCc4nc(N)sc4C3)n3c2CCCC3)ccc1F [Example 421, 3-(2-(2-amino-6,7-dihydrothiazolo[5,4-c]pyridin-5(4H)-yl)-2-oxoacetyl)-N-(4-fluoro-3-methylphenyl)-5,6,7,8-tetrahydroindolizine-1-carboxamide] | > 1000 | > 30000
Cc1cc(NC(=O)c2c(Cl)c(C(=O)C(=O)NCC(C)(C)O)n3c2CCCC3)cnc1F [Example 529, 2-chloro-N-(6-fluoro-5-methylpyridin-3-yl)-3-(2-((2-hydroxy-2-methylpropyl)amino)-2-oxoacetyl)-5,6,7,8-tetrahydroindolizine-1-carboxamide] | > 1000 | > 30000
Cc1cc(NC(=O)c2c(C)c(C(=O)C(=O)NC3CCCN(C)CC3)n(C)c2C)ccc1F (stereo not shown) [Example 353, N-(44-fluoro-3-methylphenyl)-1,2,4-trimethyl-5-(2-((1-methylazepan-4-yl)amino)-2-oxoacetyl)-1H-pyrrole-3-carboxamide] | 50 to 499 | > 30000
Cc1c(C(=O)Nc2ccc(F)c(F)c2)c2n(c1C(=O)C(=O)N[C@H]1CCC[C@H]1O)CCCC2 [Example 458, N-(3,4-difluorophenyl)-3-(2-(((1S,2R)-2-hydroxycyclopentyl)amino)-2-oxoacetyl)-2-methyl-5,6,7,8-tetrahydroindolizine-1-carboxamide] | 500 to 1000 | 5000 to 30000
Cc1cc(NC(=O)c2c(C)c(C(=O)C(=O)Nc3cc(F)[nH]c(=O)c3)n(C)c2C)ccc1F [Example 674, 5-(2-((6-fluoro-2-oxo-1,2-dihydropyridin-4-yl)amino)-2-oxoacetyl)-N-(4-fluoro-3-methylphenyl)-1,2,4-trimethyl-1H-pyrrole-3-carboxamide] | 50 to 499 | 5000 to 30000
Cc1cc(NC(=O)c2c(C)c(C(=O)C(=O)NC(C)(C)c3nc(CN(C)C)no3)n(CCF)c2C)ccc1F [Example 202, 5-(2-((2-(3-((dimethylamino)methyl)-1,2,4-oxadiazol-5-yl)propan-2-yl)amino)-2-oxoacetyl)-N-(4-fluoro-3-methylphenyl)-1-(2-fluoroethyl)-2,4-dimethyl-1H-pyrrole-3-carboxamide] | 50 to 499 | > 30000
Cc1c(C(=O)Nc2cccc(C(F)F)c2)c(C)n(C)c1C(=O)C(=O)N[C@]1(C)CC[C@H](O)CC1 [Example 701, N-(3-(difluoromethyl)phenyl)-5-(2-(((1s,4s)-4-hydroxy-1-methylcyclohexyl)amino)-2-oxoacetyl)-1,2,4-trimethyl-1H-pyrrole-3-carboxamide] | < 50 | > 30000
Cc1c(C(=O)Nc2cc(F)c(F)c(F)c2)c(Cl)c(C(=O)C(=O)NC(C)(C)C)n1C [Example 369, 5-(2-(tert-butylamino)-2-oxoacetyl)-4-chloro-1,2-dimethyl-N-(3,4,5-trifluorophenyl)-1H-pyrrole-3-carboxamide] | < 50 | > 30000
CNC(=O)[C@H](NC(=O)C(=O)c1c(C)c(C(=O)Nc2ccc(F)c(C)c2)c(C)n1C)C(C)C [Example 106, (R)-N-(4-fluoro-3-methylphenyl)-1,2,4-trimethyl-5-(2-((3-methyl-1-(methylamino)-1-oxobutan-2-yl)amino)-2-oxoacetyl)-1H-pyrrole-3-carboxamide] | < 50 | 500 to 4990
Cc1cc(Cl)cc(NC(=O)c2c(C)c(C(=O)C(=O)N[C@]3(C)CC[C@@H](O)CC3)n(C)c2C)c1 [Example 687, N-(3-chloro-5-methylphenyl)-5-(2-(((1r,4r)-4-hydroxy-1-metthylcyclohexyl)amino)-2-oxoacetyl)-1,2,4-trimethyl-1H-pyrrole-3-carboxamide] | < 50 | 5000 to 30000
Cc1[nH]c(C(=O)C(=O)NC(C)(C)C)c(C)c1C(=O)Nc1ccc(F)c(Cl)c1 [Example 3, 5-(2-(tert-butylamino)-2-oxoacetyl)-N-(3-chloro-4-fluorophenyl)-2,4-dimethyl-1H-pyrrole-3-carboxamide] | < 50 | 5000 to 30000
Cc1cc(NC(=O)c2c(C)c(C(=O)C(=O)N[C@H]3C4CC5CC3C[C@](O)(C5)C4)n(CCF)c2C)ccc1F [Example 118, N-(4-fluoro-3-methylphenyl)-1-(2-fluoroethyl)-5-(2-(((1R,2s,3S,5s,7s)-5-hydroxyadamantan-2-yl)amino)-2-oxoacetyl)-2,4-dimethyl-1H-pyrrole-3-carboxamide] | < 50 | > 30000
Cc1c(C(=O)Nc2ccc(F)c(F)c2)c(C)n(C)c1C(=O)C(=O)NC12CCC(O)(CC1)CC2 [Example 335, N-(3,4-difluorophenyl)-5-(2-((4-hydroxybicyclo[2.2.2]octan-1-yl)amino)-2-oxoacetyl)-1,2,4-trimethyl-1H-pyrrole-3-carboxamide] | < 50 | > 30000
Cc1cc(NC(=O)c2c(C)c(C(=O)C(=O)NCC(C)(C)CO)n3c2CCCC3)cnc1F [Example 476, N-(6-fluoro-5-methylpyridin-3-yl)-3-(2-((3-hydroxy-2,2-dimethylpropyl)amino)-2-oxoacetyl)-2-methyl-5,6,7,8-tetrahydroindolizine-1-carboxamide] | > 1000 | 5000 to 30000
